The test system of assay [1] is differentiated cells (NDx) of NSP. The assay is described as follows: TMZ dose response of differentiated NSP cells (NDx). As to conditions: Homo sapiens.
Description: For dose-response experiments, four replicates at ˜20,000 cells per well were plated in 96-well Nunc™ tissue culture plates in full growth medium for 24 h, treated with different doses of TMZ in serial dilutions (0.05Me5M) followed by cell viability tests using the MTT assay. Appropriate cell controls (without TMZ treatment) were used to calculate IC50.
For assay [2], the system named is U87MG cells. The assay is described as follows: TMZ dose response, MTT cell viability assay, U87MG. Also noted: AUC (area under dose response curve): unit not given beside the values. In general terms: Tetrazolium dyes change colour on reduction, which living cells bring about.
The subject of assay [3] is NSP cells (neurospheres derived from U87MG). The assay is described as follows: TMZ dose response, MTT cell viability assay, neurospheres (NSP). Also noted: AUC (area under dose response curve): unit not given beside the values.

These results are taken from patent US20200190470A1, “TEMOZOLOMIDE RESISTANT CELLS AND AN INTEGRATED METHOD FOR CHARACTERIZING THE SAME” (Council of Scientific & Industrial Research, priority 2018, published 2020).

As for `Cn1nnc2c(C(N)=O)ncn2c1=O` [Temozolomide], the IC50 in assay [1] came out at 818 µM; in assay [2] (Homo sapiens, U-87 MG), 746 µM; in assay [3] (Homo sapiens, U-87 MG) it was 1040 µM. In addition, the “AUC (area under dose response curve)” value in assay [2] (U87MG) turned out to be 53039; in assay [3] (Neurospheres (NSP)), 276836. Besides, the Emax in assay [2] (U87MG) is given as 25.53; in assay [3] (Neurospheres (NSP)), 49.29. For the same compound, the “Log2 (Hill Slope)” value in assay [2] (U87MG) was −1.959; in assay [3] (Neurospheres (NSP)), 0. The fold resistance ratio in assay [3] (NSP relative to U87MG) stood at 1.41.

Broadly, the IC50 is the concentration needed to halve the response being measured.
